Experimental data as given in ChEMBL document CHEMBL4482310, “Inhibitors of grb2-associated binding protein 1 (gab1) and methods of treating cancer using the same” (2017).

Key:
[1] = molecular target: T1, GRB2-associated-binding protein 1 (Homo sapiens, UniProt Q13480); assay: Binding affinity to recombinant human GAB1 PH domain expressed in Escherichia coli BL21 (DE3) by surface plasmon resonance assay
T1 sequence (Q13480 whole entry): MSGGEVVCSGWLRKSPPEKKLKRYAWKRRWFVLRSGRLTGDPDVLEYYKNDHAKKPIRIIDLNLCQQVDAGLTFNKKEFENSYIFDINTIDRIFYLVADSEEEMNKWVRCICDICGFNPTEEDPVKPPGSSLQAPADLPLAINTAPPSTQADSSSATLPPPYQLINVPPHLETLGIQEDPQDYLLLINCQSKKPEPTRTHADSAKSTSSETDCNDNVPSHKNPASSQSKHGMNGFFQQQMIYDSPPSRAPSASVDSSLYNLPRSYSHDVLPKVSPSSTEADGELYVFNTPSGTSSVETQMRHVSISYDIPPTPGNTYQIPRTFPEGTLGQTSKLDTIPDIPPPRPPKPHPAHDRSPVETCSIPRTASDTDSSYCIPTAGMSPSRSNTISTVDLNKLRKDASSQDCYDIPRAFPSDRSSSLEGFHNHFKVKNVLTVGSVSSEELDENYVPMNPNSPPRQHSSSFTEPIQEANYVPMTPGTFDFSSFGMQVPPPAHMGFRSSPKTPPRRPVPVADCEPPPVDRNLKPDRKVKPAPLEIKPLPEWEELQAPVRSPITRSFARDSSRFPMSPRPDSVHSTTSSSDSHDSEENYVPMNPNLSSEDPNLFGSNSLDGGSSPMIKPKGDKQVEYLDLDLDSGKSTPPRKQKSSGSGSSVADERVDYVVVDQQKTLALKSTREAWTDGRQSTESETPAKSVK

[2] = molecular target: T2, Insulin receptor substrate 1 (Homo sapiens, UniProt P35568); assay: Binding affinity to recombinant human IRS1 PH domain expressed in Escherichia coli BL21 (DE3) by surface plasmon resonance assay
T2 sequence (P35568 whole entry): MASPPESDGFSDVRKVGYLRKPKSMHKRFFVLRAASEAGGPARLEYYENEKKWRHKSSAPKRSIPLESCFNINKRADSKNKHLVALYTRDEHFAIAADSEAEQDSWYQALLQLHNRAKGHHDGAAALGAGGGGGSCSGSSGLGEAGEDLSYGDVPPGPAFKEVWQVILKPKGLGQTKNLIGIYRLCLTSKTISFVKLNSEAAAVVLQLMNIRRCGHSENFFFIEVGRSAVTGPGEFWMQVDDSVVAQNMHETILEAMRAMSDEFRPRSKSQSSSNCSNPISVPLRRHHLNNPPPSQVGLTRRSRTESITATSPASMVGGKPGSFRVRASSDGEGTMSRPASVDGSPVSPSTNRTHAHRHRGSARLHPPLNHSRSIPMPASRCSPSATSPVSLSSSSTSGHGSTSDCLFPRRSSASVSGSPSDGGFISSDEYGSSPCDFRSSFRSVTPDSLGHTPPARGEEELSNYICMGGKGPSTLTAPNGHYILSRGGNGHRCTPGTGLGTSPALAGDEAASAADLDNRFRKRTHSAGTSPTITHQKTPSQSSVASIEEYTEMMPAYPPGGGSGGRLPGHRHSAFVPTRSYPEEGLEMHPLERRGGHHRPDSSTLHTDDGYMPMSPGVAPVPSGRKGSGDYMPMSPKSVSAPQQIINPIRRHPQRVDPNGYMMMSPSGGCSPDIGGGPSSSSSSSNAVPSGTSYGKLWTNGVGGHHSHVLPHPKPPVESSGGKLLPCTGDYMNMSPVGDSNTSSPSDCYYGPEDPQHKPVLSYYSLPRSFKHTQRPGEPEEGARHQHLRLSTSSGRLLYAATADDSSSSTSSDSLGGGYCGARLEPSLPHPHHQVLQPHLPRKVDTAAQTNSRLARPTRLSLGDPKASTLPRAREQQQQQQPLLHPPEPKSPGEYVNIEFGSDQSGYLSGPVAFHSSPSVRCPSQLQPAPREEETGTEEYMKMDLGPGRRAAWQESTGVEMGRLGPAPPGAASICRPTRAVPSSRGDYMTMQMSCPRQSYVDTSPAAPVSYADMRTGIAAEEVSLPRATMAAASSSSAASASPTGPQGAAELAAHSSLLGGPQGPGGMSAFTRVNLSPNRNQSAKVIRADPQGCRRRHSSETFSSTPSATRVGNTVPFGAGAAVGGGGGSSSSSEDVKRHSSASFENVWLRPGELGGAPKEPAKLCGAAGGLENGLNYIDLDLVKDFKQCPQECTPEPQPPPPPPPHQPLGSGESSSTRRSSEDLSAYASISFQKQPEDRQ

MDA-MB-231 = assay: Cytotoxicity in human MDA-MB-231 cells assessed as reduction in cell viability incubated for 4 days by MTT assay; type: functional, cell-based
T47D = assay: Cytotoxicity in human T47D cells assessed as reduction in cell viability incubated for 4 days by MTT assay; type: functional, cell-based
[3] = molecular target: T3, Insulin receptor substrate 1 (Homo sapiens) (UniProt P35568); assay: Inhibition of HGF-induced IRS1 phosphorylation in human T47D cells assessed as pSer312 IRS1/total-IRS1 ratio level at 20 uM pre-incubated for 4 hrs before stimulation with HGF for 20 mins (reference value: 100 +/- 0.02%); type: cell-based; parameters: scale not given: the % may be the effect or the level left
T3 sequence (whole entry): T2 sequence (P35568 whole entry)

MCF-10A [4] = assay: Cytotoxicity in human MCF10A cells assessed as reduction in cell viability at 100 uM incubated for 4 days by MTT assay; type: cell-based; details: 96 h
[5] = molecular target: T4, GRB2-associated-binding protein 1 (Homo sapiens) (UniProt Q13480); assay: Inhibition of HGF-stimulated GAB1 Y627 phosphorylation in human T47D cells at 20 uM pre-incubated for 4 hrs before stimulation with HGF for 20 mins; type: cell-based
T4 sequence (whole entry): T1 sequence (Q13480 whole entry)

MCF-10A [6] = assay: Cytotoxicity in human MCF10A cells assessed as reduction in cell viability incubated for 4 days by MTT assay; type: cell-based; details: 96 h

`COc1cc(NS(=O)(=O)c2ccc(NS(=O)(=O)c3c(C)noc3C)cc2)nc(OC)n1` was tested, and the Kd [1] was “Not Active”, the Kd [2] was “Not Active” and the IC50 (MDA-MB-231) was “Not Active”. The IC50 (T47D) was “Not Active”, the Activity [3] was 91.7% and the Activity (MCF-10A [4]) was “Non-Toxic”.

In the case of `Cc1cc2ncc(-c3cnc(SCCS(=O)(=O)c4ccc(Cl)cc4)nc3)c(C)n2n1`, the Kd [1] is reported as “Not Active”, the Kd [2] is reported as “Not Active” and the Activity [3] is reported as 98.2%.

Work on `CCCCCCCCCCCCc1ccc(S(=O)(=O)Nc2nnc(C(=O)OCC)s2)cc1` yielded a Kd ([1]; read-out: Kd) of 680 nM, a Kd ([2]; read-out: Kd) of 50 nM and an inhibition [5] of 82%. For the same compound, the Activity [3] was 78.4% and the Activity (MCF-10A [6]) was “Non-Toxic”.

`Cc1onc(-c2ccccc2)c1-c1nc(CSc2nc3ccccc3[nH]2)no1` was tested, and the Kd [1] was “Not Active”, the Kd ([2]; read-out: Kd) was 120 nM and the Activity [3] was 31.1%.

In the case of `CCc1ccc(C(=O)OC)cc1CSc1nnc(-c2ccc(C(F)(F)F)cc2)n1Cc1ccoc1`, the Activity [3] is reported as 64.4%.

In the case of `O=S(=O)(NCc1csc(-c2cccs2)n1)c1ccc(N2CCOCC2)nc1`, the Kd [1] is reported as “Not Active”, the Kd ([2]; read-out: Kd) is reported as 16200 nM and the IC50 (MDA-MB-231) is reported as “Not Active”. For the same compound, the Activity [3] was 101%.

In the case of `O=C(O)c1ccccc1C(=O)Nc1ccccc1SCCS(=O)(=O)c1ccc(Cl)cc1`, the Kd [1] is reported as “Not Active”, the Kd [2] is reported as “Not Active” and the IC50 (MDA-MB-231) is reported as “Not Active”. For the same compound, the Activity [3] was 75.6% and the Activity (MCF-10A [4]) was “Non-Toxic”.

`CCCCCCCCCCCCc1ccc(S(=O)(=O)Nc2nncs2)cc1` gave a Kd ([1]; read-out: Kd) of 1330 nM and an Activity [3] of 61.3%.

For `O=S(=O)(NCc1csc2ccc(Cl)cc12)c1cc(S(=O)(=O)c2ccccc2)cs1`, the Kd [2] was “Not Active”, the Activity [3] was 46.5% and the Activity (MCF-10A [6]) was “Non-Toxic”.

For `Cn1c(Cc2ccsc2)nnc1SCC(=O)Nc1cc(Cl)cc(Cl)c1`, the Kd [1] was “Not Active”, the Kd [2] was “Not Active” and the IC50 (MDA-MB-231) was “Not Active”. The IC50 (T47D) was “Not Active” and the Activity [3] was 84.8%.

For `CS(=O)(=NS(=O)(=O)c1ccc(-c2ccccn2)s1)c1ccc(Cl)cc1` (stereo unspecified), the Kd [1] was “Not Active”, the Kd [2] was “Not Active” and the IC50 (MDA-MB-231) was “Not Active”. For the same compound, the IC50 (T47D) was “Not Active” and the Activity [3] was 102%.

Work on `CCCCCCCCCCCCCCCCCCOC[C@H](COP(=O)(O)O[C@H]1[C@H](O)[C@@H](O)[C@H](O)C[C@H]1O)OC` yielded an inhibition [5] of 72% and an Activity [3] of 116%.

With `CS(=O)(=O)CCSc1ncccc1C(=O)Sc1ccc(Cl)cc1Cl` the Kd ([1]; read-out: Kd) was 42300 nM, the Kd ([2]; read-out: Kd) was 1600 nM and the Activity [3] was 79.7%. The Activity (MCF-10A [6]) was “Non-Toxic”.

For `CCCCCCCCCCCCc1ccc(S(=O)(=O)Nc2nnc(S(N)(=O)=O)s2)cc1`, the Kd [2] was “Not Active” and the Activity [3] was 115%.

`Cc1noc(C)c1NC(=O)NCc1csc(-c2cccs2)n1` was tested, and the Kd [1] was “Not Active”, the Kd [2] was “Not Active” and the Activity [3] was 100%.

With `O=c1[nH]nc(SCc2csc(-c3ccccc3)n2)n1Cc1ccco1` the Kd ([1]; read-out: Kd) was 2200 nM, the Kd [2] was “Not Active” and the Activity [3] was 40.7%. The Activity (MCF-10A [6]) was “Non-Toxic”.

For `Cc1nnc(NS(=O)(=O)c2ccc(NS(=O)(=O)c3ccc4ccccc4c3)cc2)s1`, the Kd [1] was “Not Active”, the Kd [2] was “Not Active” and the Activity [3] was 89.9%.

Compound `Cc1nc(-c2ccc(S(=O)(=O)N3CCN(C4c5ccccc5-c5ccccc54)CC3)s2)cs1` has an Activity [3] of 98.7%.

Work on `CCCCCCCCCCCCc1ccc(S(=O)(=O)Nc2nnc(CC(=O)OCC)s2)cc1` yielded a Kd ([1]; read-out: Kd) of 900 nM, a Kd ([2]; read-out: Kd) of 150 nM and an inhibition [5] of 96%. The Activity [3] was 60.6% and the Activity (MCF-10A [6]) was “Non-Toxic”.

`Cn1cnc(S(=O)(=O)Nc2ccccc2SCCS(=O)(=O)c2ccc(Cl)cc2)c1` showed a Kd ([1]; read-out: Kd) of 2100 nM, a Kd ([2]; read-out: Kd) of 16400 nM and an Activity [3] of 83.2%.

Work on `CCCCCCCCCCCCc1ccc(S(=O)(=O)Nc2nnc(CC(=O)O)s2)cc1` yielded a Kd ([2]; read-out: Kd) of 50 nM and an Activity [3] of 69%.
